# Laboratory results from patent US9717748B2, “Compositions and methods for treating an infection” (CMPD LICENSING, LLC, priority 2015, dated 2017).
# Tests used:
# [1] = system: Enterococcus faecalis; test: Expected efficacy of antibiotic agents; conditions: Gram: pos
# [2] = system: Moraxella catarrhalis; test: Expected efficacy of antibiotic agents; conditions: Gram: neg
# [3] = system: Citrobacter diversus; test: Expected efficacy of antibiotic agents; conditions: Gram: neg
# [4] = system: Enterococcus faecium; test: Expected efficacy of antibiotic agents; conditions: Gram: pos
# [5] = system: Proteus vulgaris; test: Expected efficacy of antibiotic agents; conditions: Gram: neg
# [6] = system: Haemophilus ducreyi; test: Expected efficacy of antibiotic agents; conditions: Gram: neg
# [7] = system: Legionella pneumophila; conditions: Gram: neg
# [8] = system: Staphylococcus epidermidis; test: Expected efficacy of antibiotic agents; conditions: Gram: pos
# [9] = system: Chlamydia trachomatis; test: Expected efficacy of antibiotic agents; conditions: Gram: n/a
# [10] = system: Klebsiella (Calymmato-bacterium) granulomatis; test: Expected efficacy of antibiotic agents; conditions: Gram: neg
# [11] = system: Acinetobacter lwoffii; test: Expected efficacy of antibiotic agents; conditions: Gram: neg
# [12] = system: Citrobacter freundii; test: Expected efficacy of antibiotic agents; conditions: Gram: neg
# [13] = system: Providencia rettgeri; test: Expected efficacy of antibiotic agents; conditions: Gram: neg
# [14] = system: Pseudomonas aeruginosa; test: Expected efficacy of antibiotic agents; conditions: Gram: neg
# [15] = system: Chlamydia pneumoniae; test: Expected efficacy of antibiotic agents; conditions: Gram: n/a
# [16] = system: Providencia stuartii; test: Expected efficacy of antibiotic agents; conditions: Gram: neg
# [17] = system: Proteus mirabilis; test: Expected efficacy of antibiotic agents; conditions: Gram: neg
# [18] = system: Morganella morganii; test: Expected efficacy of antibiotic agents; conditions: Gram: neg
# [19] = system: Campylobacter jejuni; test: Expected efficacy of antibiotic agents; conditions: Gram: neg
# [20] = system: Francisella tularensis; conditions: Gram: neg
# [21] = system: Brucella species; conditions: Gram: neg
# [22] = system: Yersinia pestis; conditions: Gram: neg
# [23] = system: Chlamydia psittaci; conditions: Gram: n/a
# [24] = system: Acinetobacter baumannii; test: Expected efficacy of antibiotic agents; conditions: Gram: neg
# [25] = system: Haemophilus parainfluenzae; test: Expected efficacy of antibiotic agents; conditions: Gram: neg
# [26] = system: Serratia marcescens; test: Expected efficacy of antibiotic agents; conditions: Gram: neg
# [27] = system: Bacteroides fragilis; test: Expected efficacy of antibiotic agents; conditions: Gram: anaer
# [28] = system: Neisseria gonorrhoeae; test: Expected efficacy of antibiotic agents; conditions: Gram: neg
# [29] = system: Shigella dysenteriae; test: Expected efficacy of antibiotic agents; conditions: Gram: neg
# [30] = system: Corynebacterium jeikeium; test: Expected efficacy of antibiotic agents; conditions: Gram: pos
# [31] = system: Salmonella typhi; test: Expected efficacy of antibiotic agents; conditions: Gram: neg
# [32] = system: Klebsiella pneumoniae; test: Expected efficacy of antibiotic agents; conditions: Gram: neg
# [33] = system: Shigella flexneri; test: Expected efficacy of antibiotic agents; conditions: Gram: neg
# [34] = system: Methicillin resistant staphaureus (MRSA); test: Expected efficacy of antibiotic agents; conditions: Gram: pos
# [35] = system: Shigella sonnei; test: Expected efficacy of antibiotic agents; conditions: Gram: neg
# [36] = system: Staphylococcus aureus (MSSA); test: Expected efficacy of antibiotic agents; conditions: Gram: pos
# [37] = system: Cryptococcus neoformans; test: Expected efficacy of antifungal agents
# [38] = system: Aspergillus fumigatus; test: Expected efficacy of antifungal agents
# [39] = system: Aspergillus flavus; test: Expected efficacy of antifungal agents
# [40] = system: Coccidioides immitis
smiles,measurement,setting,value
C[C@H]1c2cccc(O)c2C(=O)C2=C(O)[C@]3(O)C(=O)C(C(N)=O)=C(O)[C@@H](N(C)C)[C@@H]3[C@@H](O)[C@@H]21 [Doxycyline],Expected efficacy against Enterococcus faecalis,[1],no
same,Expected efficacy against Moraxella catarrhalis,[2],yes
same,Expected efficacy against Citrobacter diversus,[3],no
same,Expected efficacy against Enterococcus faecium,[4],no
same,Expected efficacy against Proteus vulgaris,[5],no
same,Expected efficacy against Haemophilus ducreyi,[6],yes
same,Expected efficacy against Legionella pneumophila,[7],yes
same,Expected efficacy against Staphylococcus epidermidis,[8],yes
same,Expected efficacy against Chlamydia trachomatis,[9],yes
same,Expected efficacy against Klebsiella (Calymmato-bacterium) granulomatis,[10],yes
same,Expected efficacy against Acinetobacter lwoffii,[11],no
same,Expected efficacy against Citrobacter freundii,[12],no
same,Expected efficacy against Providencia rettgeri,[13],no
same,Expected efficacy against Pseudomonas aeruginosa,[14],no
same,Expected efficacy against Chlamydia pneumoniae,[15],yes
same,Expected efficacy against Providencia stuartii,[16],no
same,Expected efficacy against Proteus mirabilis,[17],no
same,Expected efficacy against Morganella morganii,[18],no
same,Expected efficacy against Campylobacter jejuni,[19],yes
same,Expected efficacy against Francisella tularensis,[20],yes
same,Expected efficacy against Brucella species,[21],yes
same,Expected efficacy against Yersinia pestis,[22],yes
same,Expected efficacy against Chlamydia psittaci,[23],yes
same,Expected efficacy against Acinetobacter baumannii,[24],no
same,Expected efficacy against Haemophilus parainfluenzae,[25],yes
same,Expected efficacy against Serratia marcescens,[26],no
O=C(O)c1cn(C2CC2)c2cc(N3CCNCC3)c(F)cc2c1=O [Ciprofloxacin],Expected efficacy against Bacteroides fragilis,[27],no
same,Expected efficacy against Moraxella catarrhalis,[2],yes
same,Expected efficacy against Enterococcus faecium,[4],no
same,Expected efficacy against Legionella pneumophila,[7],yes
same,Expected efficacy against Staphylococcus epidermidis,[8],yes
same,Expected efficacy against Neisseria gonorrhoeae,[28],yes
same,Expected efficacy against Shigella dysenteriae,[29],yes
same,Expected efficacy against Citrobacter freundii,[12],yes
same,Expected efficacy against Providencia rettgeri,[13],yes
same,Expected efficacy against Corynebacterium jeikeium,[30],no
same,Expected efficacy against Pseudomonas aeruginosa,[14],yes
same,Expected efficacy against Chlamydia pneumoniae,[15],yes
same,Expected efficacy against Providencia stuartii,[16],yes
same,Expected efficacy against Salmonella typhi,[31],yes
same,Expected efficacy against Proteus mirabilis,[17],yes
same,Expected efficacy against Campylobacter jejuni,[19],yes
same,Expected efficacy against Klebsiella pneumoniae,[32],yes
same,Expected efficacy against Shigella flexneri,[33],yes
same,Expected efficacy against Methicillin resistant staphaureus (MRSA),[34],no
same,Expected efficacy against Francisella tularensis,[20],yes
same,Expected efficacy against Yersinia pestis,[22],yes
same,Expected efficacy against Shigella sonnei,[35],yes
same,Expected efficacy against Staphylococcus aureus (MSSA),[36],no
same,Expected efficacy against Haemophilus parainfluenzae,[25],yes
OC(Cn1cncn1)(Cn1cncn1)c1ccc(F)cc1F [Fluconazole],Expected efficacy against Cryptococcus neoformans,[37],yes
same,Expected efficacy against Aspergillus fumigatus,[38],yes
same,Expected efficacy against Aspergillus flavus,[39],yes
same,Expected efficacy against Coccidioides immitis,[40],yes
